In ChEMBL document CHEMBL5137033, “Development of sulfonamide-based NLRP3 inhibitors: Further modifications and optimization through structure-activity relationship studies” (Eur J Med Chem, 2022):

Columns and labels:
[1] = biological target: T1, NACHT, LRR and PYD domains-containing protein 3 (Mus musculus, UniProt Q8R4B8); test: Inhibition of NLRP3 inflammasome in LPS-primed mouse J774.A1 cells assessed as reduction in IL-1beta secretion preincubated for 30 mins followed by ATP addition and measured after 30 mins by ELISA; format: cell-based
T1 sequence (Q8R4B8 whole entry, the tested form may be a part): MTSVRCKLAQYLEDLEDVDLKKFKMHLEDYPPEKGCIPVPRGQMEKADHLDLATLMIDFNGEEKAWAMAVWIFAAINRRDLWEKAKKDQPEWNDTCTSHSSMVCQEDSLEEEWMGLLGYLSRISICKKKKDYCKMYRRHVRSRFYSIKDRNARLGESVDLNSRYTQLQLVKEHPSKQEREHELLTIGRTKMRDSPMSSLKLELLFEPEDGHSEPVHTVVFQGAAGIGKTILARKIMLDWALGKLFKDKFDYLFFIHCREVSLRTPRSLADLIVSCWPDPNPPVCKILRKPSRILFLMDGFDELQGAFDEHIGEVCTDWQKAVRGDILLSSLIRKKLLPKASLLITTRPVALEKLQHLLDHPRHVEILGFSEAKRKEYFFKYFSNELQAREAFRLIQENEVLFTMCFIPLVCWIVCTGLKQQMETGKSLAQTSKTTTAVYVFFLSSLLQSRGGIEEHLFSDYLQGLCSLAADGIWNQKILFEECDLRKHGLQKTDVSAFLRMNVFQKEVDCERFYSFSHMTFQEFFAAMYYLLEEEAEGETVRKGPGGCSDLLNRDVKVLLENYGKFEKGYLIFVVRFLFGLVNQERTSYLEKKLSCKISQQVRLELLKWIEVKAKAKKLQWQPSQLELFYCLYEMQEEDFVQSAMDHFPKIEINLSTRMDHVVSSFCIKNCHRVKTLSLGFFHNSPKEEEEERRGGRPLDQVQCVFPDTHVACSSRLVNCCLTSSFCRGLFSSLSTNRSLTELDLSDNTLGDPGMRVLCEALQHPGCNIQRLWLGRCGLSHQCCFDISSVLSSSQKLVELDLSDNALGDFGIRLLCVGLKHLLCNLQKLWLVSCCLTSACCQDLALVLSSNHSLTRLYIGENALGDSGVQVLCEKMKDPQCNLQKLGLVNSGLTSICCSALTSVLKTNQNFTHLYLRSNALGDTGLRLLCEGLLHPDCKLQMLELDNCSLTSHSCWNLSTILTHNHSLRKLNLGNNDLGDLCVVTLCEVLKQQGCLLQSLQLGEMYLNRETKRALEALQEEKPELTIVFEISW

HEK293 = test: (§1) Cytotoxicity against HEK293 cells assessed as cell viability at 10 uM incubated for 4 hrs by MTT assay relative to control; format: toxicity, cell-based; conditions: human, hek293, 4 h, 10 µM
J774.A1 = test: (§2) Cytotoxicity against mouse J774.A1 cells assessed as cell viability at 10 uM incubated for 4 hrs by MTT assay relative to control; format: toxicity, cell-based; conditions: j774.a1, 4 h, 10 µM
[2] = biological target: NLR family CARD domain-containing protein 4 (Mus musculus) (UniProt Q3UP24); test: Inhibition of NLRC4 inflammasome in LPS-primed mouse J774.A1 cells assessed as IL-1beta secretion at 10 uM preincubated for 1 hr followed by flagellin addition and measured after 6 hrs by ELISA relative to control; format: cell-based; set-up: scale not given: the % may be the effect or the level left; conditions: time 7.0 hrs
Sequence of NLR family CARD domain-containing protein 4 (Mus musculus) (Q3UP24 whole entry, the tested form may be a part): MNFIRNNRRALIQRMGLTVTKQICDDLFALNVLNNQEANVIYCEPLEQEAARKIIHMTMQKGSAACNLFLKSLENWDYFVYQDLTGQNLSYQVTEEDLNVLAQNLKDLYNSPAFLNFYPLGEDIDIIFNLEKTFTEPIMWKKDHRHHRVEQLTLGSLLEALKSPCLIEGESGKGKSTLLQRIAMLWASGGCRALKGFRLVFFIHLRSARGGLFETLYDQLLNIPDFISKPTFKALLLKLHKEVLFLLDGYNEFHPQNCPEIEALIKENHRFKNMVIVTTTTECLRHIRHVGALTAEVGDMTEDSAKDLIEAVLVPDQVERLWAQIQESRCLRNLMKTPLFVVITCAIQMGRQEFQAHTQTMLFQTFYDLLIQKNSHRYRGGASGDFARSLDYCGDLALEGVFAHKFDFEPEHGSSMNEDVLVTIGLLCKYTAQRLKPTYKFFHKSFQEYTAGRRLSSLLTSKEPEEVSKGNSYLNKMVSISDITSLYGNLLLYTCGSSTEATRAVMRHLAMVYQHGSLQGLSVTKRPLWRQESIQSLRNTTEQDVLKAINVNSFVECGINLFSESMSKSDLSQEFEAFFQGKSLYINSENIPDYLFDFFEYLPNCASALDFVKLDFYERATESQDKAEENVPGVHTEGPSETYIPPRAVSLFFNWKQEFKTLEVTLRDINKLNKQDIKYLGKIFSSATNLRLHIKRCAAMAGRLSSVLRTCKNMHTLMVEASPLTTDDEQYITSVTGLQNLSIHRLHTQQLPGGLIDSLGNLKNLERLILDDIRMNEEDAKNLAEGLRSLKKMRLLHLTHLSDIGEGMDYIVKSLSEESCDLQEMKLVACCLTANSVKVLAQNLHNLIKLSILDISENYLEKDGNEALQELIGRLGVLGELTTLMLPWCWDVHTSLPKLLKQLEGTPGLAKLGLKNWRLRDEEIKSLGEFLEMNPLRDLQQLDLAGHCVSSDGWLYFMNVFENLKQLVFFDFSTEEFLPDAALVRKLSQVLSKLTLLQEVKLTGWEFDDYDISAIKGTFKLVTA

[3] = biological target: T2, Interferon-inducible protein AIM2 (Mus musculus) (UniProt Q91VJ1); test: Inhibition of AIM2 inflammasome in LPS-primed mouse J774.A1 cells assessed as IL-1beta secretion at 10 uM preincubated for 1 hr followed by poly(dA:dT) addition and measured after 4 hrs by ELISA relative to control; format: cell-based; set-up: scale not given: the % may be the effect or the level left; conditions: time 5.0 hrs
T2 sequence (whole entry): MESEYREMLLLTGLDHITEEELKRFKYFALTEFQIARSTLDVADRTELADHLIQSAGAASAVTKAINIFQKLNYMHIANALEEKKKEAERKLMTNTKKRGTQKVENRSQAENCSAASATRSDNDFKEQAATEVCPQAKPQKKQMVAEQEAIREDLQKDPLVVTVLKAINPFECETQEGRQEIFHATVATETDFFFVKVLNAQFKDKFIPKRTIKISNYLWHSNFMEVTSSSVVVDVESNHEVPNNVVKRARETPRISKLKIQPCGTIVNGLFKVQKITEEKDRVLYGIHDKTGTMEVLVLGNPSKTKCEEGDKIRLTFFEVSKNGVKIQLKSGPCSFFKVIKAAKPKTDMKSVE

[4] = Drug uptake in iv dosed C57BL/6 mouse Midbrain measured after 60 mins by PET/CT imaging analysis; format: ADME, organism-based; conditions: in vivo, 1 h
[5] = Drug uptake in iv dosed C57BL/6 mouse lung measured after 60 mins; conditions: in vivo, 1 h
[6] = Drug uptake in iv dosed C57BL/6 mouse brain thalamus measured after 60 mins by PET/CT imaging analysis; format: ADME, organism-based; conditions: in vivo, 1 h
[7] = Drug uptake in iv dosed C57BL/6 mouse lung measured after 1 min by PET/CT imaging analysis; format: ADME, organism-based; conditions: in vivo
[8] = Drug uptake in iv dosed C57BL/6 mouse brain measured after 60 mins by PET/CT imaging analysis; format: ADME, organism-based; conditions: in vivo, 1 h
[9] = Drug uptake in iv dosed C57BL/6 mouse hippocampus measured after 60 mins by PET/CT imaging analysis; format: ADME, organism-based; conditions: in vivo, 1 h
[10] = Uptake in iv dosed C57BL/6 mouse kidney measured after 60 mins; conditions: in vivo, 1 h
[11] = Drug uptake in iv dosed C57BL/6 mouse brain cerebellum measured after 60 mins by PET/CT imaging analysis; format: ADME, organism-based; conditions: in vivo, 1 h
[12] = Drug uptake in iv dosed C57BL/6 mouse kidney measured after 3 min by PET/CT imaging analysis; format: ADME, organism-based; conditions: in vivo, 0.05 h
[13] = Drug uptake in iv dosed C57BL/6 mouse liver measured after 3 min by PET/CT imaging analysis; format: ADME, organism-based; conditions: in vivo, 0.05 h
[14] = Drug uptake in iv dosed C57BL/6 mouse Brainstem measured after 60 mins by PET/CT imaging analysis; format: ADME, organism-based; conditions: in vivo, 1 h
[15] = Drug uptake in iv dosed C57BL/6 mouse blood measured after 1 min by PET/CT imaging analysis; format: ADME, organism-based; conditions: in vivo
[16] = Drug uptake in iv dosed C57BL/6 mouse liver measured after 60 mins; conditions: in vivo, 1 h
[17] = Drug uptake in iv dosed C57BL/6 mouse brain striatum measured after 60 mins by PET/CT imaging analysis; format: ADME, organism-based; conditions: in vivo, 1 h
[18] = Drug uptake in iv dosed C57BL/6 mouse brain cortex measured after 60 mins by PET/CT imaging analysis; format: ADME, organism-based; conditions: in vivo, 1 h
[19] = Drug uptake in iv dosed C57BL/6 mouse blood measured after 60 mins; conditions: in vivo, 1 h
[20] = as §1; format: toxicity, cell-based; conditions: human, HEK293 cells, read-out: Activity
[21] = as §2; format: toxicity, cell-based; conditions: J774.A1 cells, read-out: Activity
[22] = biological target: NLR family CARD domain-containing protein 4 (Mus musculus, UniProt Q3UP24); test: Inhibition of NLRC4 inflammasome in LPS-primed mouse J774.A1 cells assessed as reduction in IL-1beta secretion preincubated for 1 hr followed by flagellin addition and measured after 6 hrs by ELISA; format: cell-based
Sequence of NLR family CARD domain-containing protein 4 (Q3UP24 whole entry, the tested form may be a part): as the sequence (Q3UP24 whole entry, the tested form may be a part) above

[23] = biological target: T3, Interferon-inducible protein AIM2 (Mus musculus, UniProt Q91VJ1); test: Inhibition of AIM2 inflammasome in LPS-primed mouse J774.A1 cells assessed as reduction in IL-1beta secretion preincubated for 1 hr followed by poly(dA:dT) addition and measured after 4 hrs by ELISA; format: cell-based
T3 sequence (Q91VJ1 whole entry): T2 sequence (whole entry)

[24] = Inhibition of IL-1beta production in C57BL/6 mouse assessed as reduction in IL-1beta level in serum at 10 mg/kg, ip pretreated with compound followed by LPS addition and measured after 2.5 hrs by ELISA; format: functional
[25] = biological target: NACHT, LRR and PYD domains-containing protein 3 (Homo sapiens, UniProt Q96P20); test: Binding affinity to human recombinant full length NLRP3 transfected in HEK293F cells assessed as dissociation constant incubated for 40 mins by microscale thermophoresis analysis
Sequence of NACHT, LRR and PYD domains-containing protein 3 (Homo sapiens, UniProt Q96P20) (Q96P20 whole entry, the tested form may be a part): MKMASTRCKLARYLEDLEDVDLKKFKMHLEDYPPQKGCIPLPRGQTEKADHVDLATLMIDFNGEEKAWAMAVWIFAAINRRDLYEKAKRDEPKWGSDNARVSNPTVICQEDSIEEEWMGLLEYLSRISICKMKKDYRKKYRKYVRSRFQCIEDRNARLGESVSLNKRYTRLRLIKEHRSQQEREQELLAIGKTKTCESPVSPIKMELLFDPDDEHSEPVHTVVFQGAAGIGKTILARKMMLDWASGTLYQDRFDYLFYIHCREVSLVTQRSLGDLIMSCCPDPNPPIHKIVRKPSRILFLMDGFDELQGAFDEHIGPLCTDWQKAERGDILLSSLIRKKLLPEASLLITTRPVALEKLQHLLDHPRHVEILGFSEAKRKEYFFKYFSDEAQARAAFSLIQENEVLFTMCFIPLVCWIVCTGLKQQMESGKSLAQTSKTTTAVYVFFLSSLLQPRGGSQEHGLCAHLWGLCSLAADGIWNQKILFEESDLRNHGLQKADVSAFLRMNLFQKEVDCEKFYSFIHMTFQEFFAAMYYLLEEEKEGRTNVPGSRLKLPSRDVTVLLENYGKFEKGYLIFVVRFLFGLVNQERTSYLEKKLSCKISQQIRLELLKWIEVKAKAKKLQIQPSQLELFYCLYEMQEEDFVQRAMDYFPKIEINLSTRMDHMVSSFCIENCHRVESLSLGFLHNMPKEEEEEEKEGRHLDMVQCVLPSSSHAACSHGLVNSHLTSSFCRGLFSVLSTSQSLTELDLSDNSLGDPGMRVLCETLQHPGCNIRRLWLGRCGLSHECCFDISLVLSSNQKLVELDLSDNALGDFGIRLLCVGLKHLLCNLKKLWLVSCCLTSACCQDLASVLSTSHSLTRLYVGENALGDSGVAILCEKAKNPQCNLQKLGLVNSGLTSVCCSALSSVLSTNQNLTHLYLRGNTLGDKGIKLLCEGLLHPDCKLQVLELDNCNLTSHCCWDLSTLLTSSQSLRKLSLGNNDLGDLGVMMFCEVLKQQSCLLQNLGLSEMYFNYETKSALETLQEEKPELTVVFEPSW

[26] = biological target: T1, NACHT, LRR and PYD domains-containing protein 3; test: Inhibition of NLRP3 inflammasome in LPS-primed mouse BMDM cells assessed as reduction in IL-1beta secretion preincubated for 30 mins followed by ATP addition and measured after 30 mins by ELISA; format: cell-based

Compound	IC50 [1] [nM]	Activity [2] [%]	Activity [3] [%]	Activity (HEK293) [%]	Activity (J774.A1) [%]	further results
C#CCNS(=O)(=O)c1ccc(CCN(Cc2cc(Cl)ccc2N)C(=O)Cc2ccsc2)cc1	1130	–	–	92.9	93.5	–
C#CCNS(=O)(=O)c1ccc(CCN(Cc2ccco2)C(=O)Cc2ccsc2)cc1	2490	76.2	89.4	96.4	112.9	–
C#CCNS(=O)(=O)c1ccc(CCN(Cc2cc(Cl)ccc2OCCC)C(=O)c2csc3c2CCCC3)cc1	510	–	–	95.9	93.7	–
C#CCNS(=O)(=O)c1ccc(CCN(Cc2cc(Cl)ccc2OCCC)C(=O)c2ccc(B3OC(C)(C)C(C)(C)O3)cc2)cc1	2490	–	–	95.2	88.1	–
C#CCNS(=O)(=O)c1ccc(CCN(Cc2cc(Cl)ccc2OCCC)C(=O)c2ccc([18F])cc2)cc1	–	–	–	–	–	Drug uptake [4]: Active; Drug uptake [5]: 4.7 %ID/cc; Drug uptake [6]: Active; Drug uptake [7]: 22.6 %ID/cc; Drug uptake [8]: 1.8 %ID/cc; Drug uptake [9]: Active; Drug uptake [10]: 12.3 %ID/cc; Drug uptake [11]: Active; Drug uptake [12]: 20 %ID/cc; Drug uptake [13]: 18.1 %ID/cc; Drug uptake [14]: Active; Drug uptake [15]: 30.1 %ID/cc; Drug uptake [16]: 12 %ID/cc; Drug uptake [17]: Active; Drug uptake [18]: Active; Drug uptake [19]: 4.2 %ID/cc
C#CCNS(=O)(=O)c1ccc(CCN(Cc2cc(Cl)ccc2OCCC)C(=O)c2ccc([N+](=O)[O-])cc2)cc1	760	–	–	91.6	101.3	–
C#CCNS(=O)(=O)c1ccc(CCN(Cc2cc(Cl)ccc2OCCC)C(=O)CCCc2ccsc2)cc1	1170	–	–	89.1	97.9	–
C#CCNS(=O)(=O)c1ccc(CCN(Cc2cccc3c2OCO3)C(=O)c2ccc(F)cc2)cc1	930	–	–	93.4	99.5	–
C#CCNS(=O)(=O)c1ccc(CCN(Cc2cccc3c2OCO3)C(=O)Cc2ccsc2)cc1	340	66.9	68.8	100.7	100	–
CC(C)(C)c1coc(S(=O)(=O)NC(=O)Nc2c3c(cc4c2CCC4)CCC3)c1	–	–	–	–	–	viability at 4 h, 10 µM [20]: 95.2%; viability at 4 h, 10 µM [21]: 94.9%
C#CCNS(=O)(=O)c1ccc(CCN(Cc2ccsc2)Cc2cc(Cl)ccc2OCCC)cc1	750	28.9	49.8	82	90.5	–
C#CCNS(=O)(=O)c1ccc(CCN(Cc2cc(Cl)ccc2OCCC)C(=O)Cc2ccsc2)cc1	–	–	–	99	106	–
CCCOc1ccc(Cl)cc1CN(CCc1ccc(S(=O)(=O)N2CCC2)cc1)C(=O)c1csc2ccccc12	7580	–	–	100.7	107	–
CCCOc1ccc(Cl)cc1CN(CCc1ccc(S(=O)(=O)N2CCOCC2)cc1)C(=O)Cc1ccsc1	470	–	–	88.3	103.4	–
C#CCNS(=O)(=O)c1ccc(CCN(Cc2cc(Cl)ccc2C(F)(F)F)C(=O)Cc2ccsc2)cc1	460	–	–	92.1	93.1	–
C#CCNS(=O)(=O)c1ccc(CCN(Cc2ccccc2OCCC)C(=O)Cc2ccsc2)cc1	790	70.1	61.4	98.9	100.2	–
C#CCS(=O)(=O)c1ccc(CCN(Cc2cc(Cl)ccc2OCCC)C(=O)c2csc3ccccc23)cc1	440	29.1	0	95.6	85.7	–
CCCOc1ccc(Cl)cc1CN(CCc1ccc(S(=O)(=O)N2CCC2)cc1)C(=O)Cc1ccc(F)cc1	1350	109	102	103.6	106.1	–
C#CCNS(=O)(=O)c1ccc(CCN(Cc2cc(Cl)ccc2O)C(=O)Cc2ccsc2)cc1	680	8	47.3	97.6	92	–
CCCOc1ccc(Cl)cc1CN(CCc1ccc(S(=O)(=O)NCC(C)(C)C)cc1)C(=O)Cc1ccsc1	660	89.3	52.3	–	105.1	–
C#CCNS(=O)(=O)c1ccc(CCN(Cc2cc(Cl)ccc2OCCC)C(=O)c2ccc(O)cc2)cc1	620	–	–	92.1	83.5	–

Now from value to molecule, other results behind:

IC50 [1] [nM]	Activity [2] [%]	Activity [3] [%]	Compound	Activity (HEK293) [%]	Activity (J774.A1) [%]	further results
300	78.9	82.7	C#CCNS(=O)(=O)c1ccc(CCN(Cc2cc(Cl)ccc2[N+](=O)[O-])C(=O)Cc2ccsc2)cc1	96.2	98.7	–
130	74.7	79.7	C#CCNS(=O)(=O)c1ccc(CCN(Cc2cc(Cl)ccc2OCCC)C(=O)c2csc3ccccc23)cc1	92.6	108.1	–
320	80.8	108	C#CCN(C)S(=O)(=O)c1ccc(CCN(Cc2cc(Cl)ccc2OCCC)C(=O)Cc2ccsc2)cc1	94.5	105.8	IC50 [22]: > 10000 nM; IC50 [23]: > 10000 nM
190	102	59.1	C#CCNS(=O)(=O)c1ccc(CCN(Cc2cccc3c2OCO3)C(=O)Cc2ccc(F)cc2)cc1	96.2	96.8	–
210	85.6	96.7	C#CCNS(=O)(=O)c1ccc(CCN(Cc2cc(Cl)ccc2OCCC)C(=O)Cc2csc3ccccc23)cc1	99.8	105.4	IC50 [22]: > 10000 nM; IC50 [23]: > 10000 nM
280	–	–	C#CCNS(=O)(=O)c1ccc(CCN(Cc2cc(Cl)ccc2OCCC)C(=O)Cc2ccc(F)cc2)cc1	90.6	102.2	–
210	–	–	C#CCNS(=O)(=O)c1ccc(CCN(Cc2cc(Cl)ccc2OCC#C)C(=O)Cc2ccsc2)cc1	94.8	95.5	–
120	101	67.6	C#CCNS(=O)(=O)c1ccc(CCN(Cc2cc(Cl)ccc2OCCC)C(=O)c2ccc(F)cc2)cc1	91.6	96.3	inhibition in vivo at 10 mg/kg [24]: 75%; IC50 [22]: > 10000 nM; IC50 [23]: > 10000 nM; Kd [25]: 84 nM; IC50 [26]: 910 nM
190	0	0	C#CCS(=O)(=O)c1ccc(CCN(Cc2cc(Cl)ccc2OCCC)C(=O)Cc2ccsc2)cc1	88.7	81.1	–
